Results as given in patent US8952024B2, “Herbicidal pyrimidone derivatives” (E I du Pont de Nemours and Company, priority 2009, dated 2015).

How the values were obtained:
Assay type in all cases: in vivo
[1] = tested on: sprangletop (bearded (i.e. Brdd.) sprangletop, Leptochloa fascicularis); experiment: Test E flooded paddy rice and weeds; conditions: applied to paddy water, 21 days, scale 0 to 100
Procedure, shortened: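 Greenhouse paddy test: compound added into 3 cm floodwater when crop and weeds reached 2.0 to 2.5 leaves; depth held throughout. Soil was Tama silt loam, 2.6% organic matter; 30/27° C, 16-h light. Injury scored visually at 21 days on a 0 (no effect) to 100 (complete control) scale.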

[2] = tested on: blackgrass (Alopecurus myosuroides); experiment: Test C plant response; conditions: Preemergence, scale 0 to 100
[3] = tested on: chickweed (common chickweed, Stellaria media); experiment: Test C plant response; conditions: Preemergence, 125 g ai/ha; scale 0 to 100
[4] = tested on: galium (catchweed bedstraw, Galium aparine); experiment: Test C plant response; conditions: Preemergence, scale 0 to 100
[5] = tested on: bromegrass (downy bromegrass, Bromus tectorum); experiment: Test C plant response; conditions: Preemergence, scale 0 to 100
[6] = tested on: field violet (Viola arvensis); experiment: Test C plant response; conditions: Preemergence, scale 0 to 100
[7] = tested on: green foxtail (Setaria viridis); experiment: Test C plant response; conditions: Preemergence, scale 0 to 100
[8] = tested on: Italian ryegrass (Lolium multiflorum); experiment: Test C plant response; conditions: Preemergence, scale 0 to 100
[9] = tested on: oilseed rape (Brassica napus); experiment: Test C plant response; conditions: Preemergence, scale 0 to 100
[10] = tested on: pigweed (Amaranthus retroflexus); experiment: Test C plant response; conditions: Preemergence, scale 0 to 100
[11] = tested on: spring barley (Hordeum vulgare); experiment: Test C plant response; conditions: Preemergence, scale 0 to 100
[12] = tested on: spring wheat (Triticum aestivum); experiment: Test C plant response; conditions: Preemergence, scale 0 to 100
[13] = tested on: buckwheat (wild buckwheat, Polygonum convolvulus); experiment: Test C plant response; conditions: Preemergence, scale 0 to 100
[14] = tested on: wild mustard (Sinapis arvensis); experiment: Test C plant response; conditions: Preemergence, scale 0 to 100
[15] = tested on: windgrass (Apera spica-venti); experiment: Test C plant response; conditions: Preemergence, scale 0 to 100
[16] = tested on: winter wheat (Triticum aestivum); experiment: Test C plant response; conditions: Preemergence, scale 0 to 100

## COc1ccc(-n2c(-c3ccccc3)ncc(C(=O)C3=C(O)CCCC3=O)c2=O)cc1OC [Compound 218]
[1]; 32 g ai/ha
  Plant response rating, Sprangletop, Brdd., Flood: 65
[1]; 64 g ai/ha
  Plant response rating, Sprangletop, Brdd., Flood: 70
[1]; 125 g ai/ha
  Plant response rating, Sprangletop, Brdd., Flood: 70
[1]; 250 g ai/ha
  Plant response rating, Sprangletop, Brdd., Flood: 95

## Cc1ccccc1-n1c(-c2ccccc2)ncc(C(=O)C2=C(O)CCCC2=O)c1=O [Compound 12]
[2]; 62 g ai/ha
  Plant response rating: Blackgrass: 0
[2]; 125 g ai/ha
  Plant response rating: Blackgrass: 0
[2]; 16 g ai/ha
  Plant response rating: Blackgrass: 0
[2]; 31 g ai/ha
  Plant response rating: Blackgrass: 0
[3]
  Plant response rating: Chickweed: 50
[4]; 62 g ai/ha
  Plant response rating: Galium: 35
[4]; 125 g ai/ha
  Plant response rating: Galium: 35
[4]; 16 g ai/ha
  Plant response rating: Galium: 0
[4]; 31 g ai/ha
  Plant response rating: Galium: 0
[5]; 62 g ai/ha
  Plant response rating: Bromegrass, Downy: 0
[5]; 125 g ai/ha
  Plant response rating: Bromegrass, Downy: 0
[5]; 16 g ai/ha
  Plant response rating: Bromegrass, Downy: 0
[5]; 31 g ai/ha
  Plant response rating: Bromegrass, Downy: 0
[6]; 62 g ai/ha
  Plant response rating: Field Violet: 0
[6]; 125 g ai/ha
  Plant response rating: Field Violet: 0
[6]; 16 g ai/ha
  Plant response rating: Field Violet: 0
[6]; 31 g ai/ha
  Plant response rating: Field Violet: 0
[7]; 62 g ai/ha
  Plant response rating: Foxtail, Green: 0
[7]; 125 g ai/ha
  Plant response rating: Foxtail, Green: 0
[7]; 16 g ai/ha
  Plant response rating: Foxtail, Green: 0
[7]; 31 g ai/ha
  Plant response rating: Foxtail, Green: 0
[8]; 62 g ai/ha
  Plant response rating: Ryegrass, Italian: 0
[8]; 125 g ai/ha
  Plant response rating: Ryegrass, Italian: 0
[8]; 16 g ai/ha
  Plant response rating: Ryegrass, Italian: 0
[8]; 31 g ai/ha
  Plant response rating: Ryegrass, Italian: 0
[9]; 62 g ai/ha
  Plant response rating: Oilseed Rape: 30
[9]; 125 g ai/ha
  Plant response rating: Oilseed Rape: 40
[9]; 16 g ai/ha
  Plant response rating: Oilseed Rape: 0
[9]; 31 g ai/ha
  Plant response rating: Oilseed Rape: 20
[10]; 62 g ai/ha
  Plant response rating: Pigweed: 50
[10]; 125 g ai/ha
  Plant response rating: Pigweed: 65
[10]; 16 g ai/ha
  Plant response rating: Pigweed: 0
[10]; 31 g ai/ha
  Plant response rating: Pigweed: 0
[11]; 62 g ai/ha
  Plant response rating: Barley, Spring: 0
[11]; 125 g ai/ha
  Plant response rating: Barley, Spring: 0
[11]; 16 g ai/ha
  Plant response rating: Barley, Spring: 0
[11]; 31 g ai/ha
  Plant response rating: Barley, Spring: 0
[12]; 62 g ai/ha
  Plant response rating: Wheat, Spring: 0
[12]; 125 g ai/ha
  Plant response rating: Wheat, Spring: 0
[12]; 16 g ai/ha
  Plant response rating: Wheat, Spring: 0
[12]; 31 g ai/ha
  Plant response rating: Wheat, Spring: 0
[13]; 62 g ai/ha
  Plant response rating: Buckwheat, Wild: 0
[13]; 125 g ai/ha
  Plant response rating: Buckwheat, Wild: 40
[13]; 16 g ai/ha
  Plant response rating: Buckwheat, Wild: 0
[13]; 31 g ai/ha
  Plant response rating: Buckwheat, Wild: 0
[14]; 62 g ai/ha
  Plant response rating: Mustard, Wild: 5
[14]; 16 g ai/ha
  Plant response rating: Mustard, Wild: 0
[15]; 62 g ai/ha
  Plant response rating: Windgrass: 40
[15]; 125 g ai/ha
  Plant response rating: Windgrass: 40
[15]; 16 g ai/ha
  Plant response rating: Windgrass: 20
[15]; 31 g ai/ha
  Plant response rating: Windgrass: 20
[16]; 62 g ai/ha
  Plant response rating: Wheat, Winter: 0
[16]; 125 g ai/ha
  Plant response rating: Wheat, Winter: 0
[16]; 16 g ai/ha
  Plant response rating: Wheat, Winter: 0
[16]; 31 g ai/ha
  Plant response rating: Wheat, Winter: 0
